Assays:
MDA-MB-231 = test: SRB cytotoxicity assay, MDA-MB-231 cells; assay type: cell-based; conditions: MDA-MB-231, malignant, breast
Experimental: (§1) All cell lines described herein were purchased from ATCC. […] Control cultures were treated with ethanol alone.

U87 = test: SRB cytotoxicity assay, U87 cells; assay type: cell-based, human; conditions: 72 h
Experimental: as §1

SW-872 (Liposarcoma) = test: SRB cytotoxicity assay, SW-872 cells; assay type: cell-based; conditions: Homo sapiens, SW872
Experimental: as §1

REN = test: SRB cytotoxicity assay, REN cells; assay type: cell-based, human; conditions: 72 h
Experimental: as §1

SKOV-3 = test: SRB cytotoxicity assay, SKOV-3 cells; assay type: cell-based; conditions: Homo sapiens, SK-OV-3, SKOV-3, malignant, ovarian, 72 h
Experimental: as §1

HUVEC = test: SRB cytotoxicity assay, HUVEC; assay type: cell-based; conditions: Homo sapiens, non-malignant, endothelial, 72 h
Experimental: as §1

[1] = dosage of 1000 mg of MPL per kg of body weight per 24 hours; mammals; cited from earlier work

What does the source list for `C[C@](C#N)(COc1cc(C#N)ccc1C(F)(F)F)NC(=O)c1ccc(SC(F)(F)F)cc1` [MPL, N-[(1S)-1-cyano-2-(5-cyano-2-trifluoromethyl-phenoxy)-1-methyl-ethyl]-4-trifluoromethylsulfanyl-benzamide]?
IC50 (MDA-MB-231; Homo sapiens, MDA-MB-231, 72 h): 23.8 µM; IC50 (MDA-MB-231; 72 h): 25.8 ± 0.2 µM; IC50 (U87; Homo sapiens, U-87 MG, U87, malignant, glial, SRB): 18 ± 7.1 µM; Mpl Alone, Mpl (x/X) Inhibition (U87; U87 Glioblastoma, 5 μM MPL, x=events, X=experiments): 1/1; IC50 (SW-872 (Liposarcoma); SW-872 (Liposarcoma), malignant, mesenchymal, SRB, 72 h): 14.7 µM; EC50 (SW-872 (Liposarcoma); SW-872 cells): 14.7 µM; IC50 (REN; Homo sapiens, REN, malignant, mesothelial, SRB): 2.5 ± 0.2 µM; Mpl Alone, Mpl (x/X) Inhibition (REN; REN Mesothelioma, 5 μM MPL, x=events, X=experiments): 2/2; IC50 (SKOV-3): 31.2 ± 0.8 µM; IC50 (HUVEC): 87 µM; clinical tolerance [1]: well tolerated

Source: US9833431B2, “Pharmaceutical combinations for the treatment of cancer” (Pitney Pharmaceuticals Pty Limited, priority 2013, dated 2017)
